# Measured values published in patent US6894060B2, “Method for the treatment of dermal lesions caused by envenomation” (3M Innovative Properties Company, priority 2000, dated 2005).
# Test system: Loxosceles reclusa envenomation (spider bite dermal lesions)
# Assay: Treatment of Loxosceles reclusa envenomation with imiquimod 5% cream (consecutive clinical cases)
# Format: in vivo, human
# Protocol: A consecutive series of 7 bites on 5 patients were treated with imiquimod 5% cream (available under the tradename ALDARA from 3M Pharmaceuticals, St. Paul, Minn., USA) applied by the clinic staff, three times per week (typically Monday, Wednesday and Friday) for two weeks. Sufficient cream was used to cover the area of erythema, rubbing the cream gently until it “vanished” as per labeled instructions. In addition, a single intramuscular dose of ceftriaxone 1 gm was given together with oral dicloxicillin, 500 mg bid for 10 days. Patients were re-examined by a physician at 7, 14 and 28 days following initiation of therapy.
structure (smiles),measurement,setting,value
"CC(C)Cn1cnc2c(N)nc3ccccc3c21 [imiquimod, 1-(2-methylpropyl)-1H-imidazo[4,5-c]quinolin-4-amine]",improvement in induration and erythema by day 7,7 bites in 5 patients,Marked improvement
same,resolution of induration and erythema by day 14,7 bites in 5 patients,full resolution in all but one case
same,cases with necrosis,"7 consecutive cases, versus historical rate 7/12 (0.583): binomial p=0.002, Chi-square p=0.01",0 out of 7
same,residual scarring or pigmentation changes,day 28 follow-up visit,No residual scarring or pigmentation changes
same,development of necrosis,"imiquimod treated cases, 7 bites in 5 patients",Necrosis did not develop in any
same,"erythema, 14 Day Follow-up","patient five, right calf bite",present
same,"ulcer status, 14 Day Follow-up","patient five, right calf bite",Ulcer healed
same,"erythema, 7 Day Follow-up","patient five, right calf bite, 1.2 cm erythema at presentation",No erythema
same,"ulcer, 7 Day Follow-up","patient five, right calf bite, 1.8 cm central core at presentation",0.75 cm ulcer
same,erythema resolved by (day),"patient five, right calf bite, erythema present at day 14",d28)
same,"pain, 7 Day Follow-up","patient five, right calf bite, painful at presentation",Decreased pain
same,"reappearance of erythema, presumed to be secondary to imiquimod","patient five, erythema cleared at the day 7 visit",developed again by day 14
same,"lesion status, 14 Day Follow-up","patient four, right calf bite",Completely
same,"induration, 7 Day Follow-up","patient four, right calf bite, 1.5 cm induration at presentation, cream three times per week for two weeks",0.5 cm
same,"erythema, 7 Day Follow-up","patient four, right calf bite, 9 cm erythema at presentation",No erythema
same,"pain or tenderness, 7 Day Follow-up","patient four, right calf bite, painful at presentation",No pain or
same,"lesion status, 14 Day Follow-up","patient one, right calf bite",Completely
same,"firm induration, 7 Day Follow-up","patient one, right calf bite, 1.3 cm induration at presentation",1.25 cm firm
same,"induration (second entry of the cell), 7 Day Follow-up","patient one, right calf bite, 10 cm erythema at presentation",5 cm
same,"tenderness, 7 Day Follow-up","patient one, right calf bite, very painful at presentation",Non-tender
same,time from bite to resolution,"patient three, first bite",9 days
same,"lesion status, 7 Day Follow-up","patient three, left buttock bite, 1.0 cm induration, erythema, painful at presentation",Completely
same,"lesion status, 14 Day Follow-up","patient three, right thigh bite",Completely
same,"central core, 7 Day Follow-up","patient three, right thigh bite, 1.5 cm induration at presentation",2.5 cm
same,"erythema, 7 Day Follow-up","patient three, right thigh bite, 7.5 × 11 cm erythema at presentation",No erythema
same,"pain or tenderness, 7 Day Follow-up","patient three, right thigh bite, tender at presentation",No pain or
same,"lesion status, 14 Day Follow-up","patient two, left thigh bite",Completely
same,"central core, 7 Day Follow-up","patient two, left thigh bite, 1.0 cm central core at presentation",0.5 cm
same,"erythema, 7 Day Follow-up","patient two, left thigh bite, 6.0 cm erythema at presentation",2.0 cm
same,"lesion status, 14 Day Follow-up","patient two, right breast bite",Completely
same,"central core, 7 Day Follow-up","patient two, right breast bite, 1.2 cm central core at presentation",1.0 cm
same,"erythema, 7 Day Follow-up","patient two, right breast bite, 3.0 cm erythema at presentation",No erythema
same,time to pain relief following the first dose,"reported by all patients, 7 bites in 5 patients",1 to 2 days
